Experimental data published in PubChem BioAssay (NCI).
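Protocol summary: plate cells (96-well), add compound at 5 concentrations, incubate 48 h, interpolate endpoints linearly. Definition used: TGI = concentration required for complete inhibition of growth.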

How the values were obtained:
Experiment in all cases: growth of human tumour cells (NCI), 48 h
SW-620 colon = test system: SW-620 colon
HOP-62 NSCLC = test system: HOP-62 NSCLC
HT29 colon = test system: HT29 colon
SK-OV-3 ovarian = test system: SK-OV-3 ovarian
NCI/ADR-RES ovarian = test system: NCI/ADR-RES ovarian
786-0 renal = test system: 786-0 renal
A549 NSCLC = test system: A549 NSCLC
SK-MEL-28 melanoma = test system: SK-MEL-28 melanoma
MALME-3M melanoma = test system: MALME-3M melanoma
MDA-MB-435 = test system: MDA-MB-435
NCI-H23 lung = test system: NCI-H23 lung
UACC-62 melanoma = test system: UACC-62 melanoma
MOLT-4 leukemia = test system: MOLT-4 leukemia
A498 renal = test system: A498 renal
CAKI-1 renal = test system: CAKI-1 renal
OVCAR-5 ovarian = test system: OVCAR-5 ovarian

| Compound | TGI (SW-620 colon) [µM] | TGI (HOP-62 NSCLC) [µM] | TGI (HT29 colon) [µM] | TGI (SK-OV-3 ovarian) [µM] | TGI (NCI/ADR-RES ovarian) [µM] | TGI (786-0 renal) [µM] | TGI (A549 NSCLC) [µM] | TGI (SK-MEL-28 melanoma) [µM] | TGI (MALME-3M melanoma) [µM] | TGI (MDA-MB-435) [µM] | TGI (NCI-H23 lung) [µM] | TGI (UACC-62 melanoma) [µM] | TGI (MOLT-4 leukemia) [µM] | TGI (A498 renal) [µM] | TGI (CAKI-1 renal) [µM] | TGI (OVCAR-5 ovarian) [µM] |
| --- | --- | --- | --- | --- | --- | --- | --- | --- | --- | --- | --- | --- | --- | --- | --- | --- |
| COC(=O)c1c(O)ccc2c1c1c(n2Cc2ccc(Cl)cc2Cl)C(=O)c2ccccc2C1 | > 100 | > 100 | > 100 | > 100 | > 100 | > 100 | > 100 | > 100 | > 100 | > 100 | > 100 | > 100 | > 100 | > 100 |  |  |
| C[C@@H]1C[C@](O)([C@@H](C)Cl)C(=O)O[C@@H]2CCN3CC=C(COC(=O)[C@]1(C)O)[C@H]23 | > 100 | > 100 | > 100 | > 100 | > 100 | > 100 | > 100 | > 100 |  | > 100 | > 10 | > 100 |  | > 100 | > 100 | > 100 |
| CCCNC(=S)/N=C/c1c(O)c2ccccc2[nH]c1=O | > 100 | > 100 | > 100 | > 100 | > 100 | > 100 | > 100 |  |  | > 100 | > 100 | > 100 | > 100 | > 100 | > 100 | > 100 |
| CCOC(=O)c1ccc(NC(=O)O/N=C(/Cl)CCl)cc1 | > 100 | > 100 | > 100 | > 100 | > 100 | > 100 | > 100 | > 100 | > 100 |  | > 100 |  | > 100 | > 100 | > 100 | > 100 |
| COc1cc2c(cc1O)C1C(O)C(O)C=C3CCN(C2)C31 (configuration not stated) | 12.6 | 10.9 | 18.9 | 22.9 |  | 11.9 | 10.5 | 13.9 | 3.86 |  | 6.39 | 3.97 | 12.2 |  | 10.1 | 24.6 |
| C[C@@]12CCC3C1C=C1C(=O)c4cc(O)ccc4C(=O)[C@]1(O2)[C@@]3(C)C=O | 12.9 | 20.2 | 20.9 | 21.5 | 49.5 | 14.5 | 27.2 |  |  | 11.3 | 13.5 | 16.6 | 12.9 | 9.59 | 13.7 | 26.3 |
| COc1cccc2c1C(=O)c1c(O)c3c(c(O)c1C2=O)C[C@@](O)(C(=O)CO)C[C@@H]3OC1CC(N)C(OC)C(C)O1 (some centres not stated) | 4.05 | 0.354 | 1.66 | 4.41 |  | 18.2 | 18.7 | 1.9 | 0.283 |  | 0.457 | 0.227 | 0.0517 | 0.582 |  | 1.34 |
| CC[C@]1(Cc2ccc(OC)c(OC)c2)[C@@H]2C[C@@H](C3OCCO3)ON2O[C@H](OC2CCCC2(c2ccccc2)c2ccccc2)[C@@H]1OC(C)=O (some centres not stated) | > 100 | 41.5 | 42.4 | > 100 | 53.9 | 41.1 | 79.5 | 47.3 |  | 46.9 | 43.4 | > 100 | 29 |  | 82.1 | 36 |
| Cc1cn(CCCCCOC(=O)NC(CCCN=C(N)N)C(=O)O)c(=O)[nH]c1=O (configuration not stated) | > 100 | > 100 | 60.1 | > 100 | > 100 | > 100 | > 100 | > 100 |  | 47.5 | > 100 | > 100 | > 100 | 74.3 | > 100 | > 100 |
| COC(=O)C1C=CN(N(C)C)C2=C1C(=O)c1c(O)cccc1C2=O (configuration not stated) | 5.14 | 8.42 | 3.61 | 22.7 | 6.47 | 11.4 | 6.44 | 3.87 | 2.93 |  | 4.11 | 2.37 |  | 7.47 | 5.7 | 4.62 |
| Oc1ccc(-c2nc(-c3ccc(F)cc3)c(-c3ccc4ccccc4n3)[nH]2)cc1 | 29.1 | 33.4 | 20.2 | 30.7 | 20.5 | 66 | 27 | 37.7 | 28.3 | 29.6 | 25.4 | 23.6 | 25.2 |  | 31.3 | 39.8 |
| O=C1NN=C2C=C(c3ccc(Cl)cc3)CC(c3cccc(Cl)c3)C12 (configuration not stated) | > 100 | > 100 | 51.4 | > 100 | > 100 | 62.8 | 37.2 |  | > 100 | 40.2 | > 100 | 33.6 | 52.9 |  | > 100 | 75.7 |
| Cc1ccsc1/C=N/Nc1ccc2ccccc2n1 | > 100 | 68.8 | > 100 | 48 | > 100 | > 100 | > 100 | > 100 |  | > 100 | > 100 | > 100 | > 100 | > 100 | > 100 | > 100 |
| O=C(/C=C/C=C/c1ccccc1)c1ccc2c(c1)CCCC2 | > 100 | > 100 | > 100 | > 100 | 65.8 | > 100 | > 100 | > 100 |  | 40.8 | > 100 | > 100 | 87.6 | > 100 | > 100 | > 100 |
| CC(C)=C1C(=O)C[C@]2(C)C[C@H]3/C(=C(/C)CCC12)CC[C@@]3(C)O (some centres not stated) | > 50 | > 50 | > 50 | > 50 | > 50 | > 50 | > 50 | > 50 |  | > 50 | > 50 | > 50 | > 50 | > 50 | > 50 | > 50 |
| Cc1ccc(NC(=S)NNC(=O)c2cc(-c3ccccc3)nc3ccccc23)cc1 | 25.9 | 27.8 | 55 | 30.3 | 48 | 26.1 | 26.2 | 20.1 | 34.6 | 10.9 | 27.4 | 30.6 | 44.3 |  | 45.9 | 31.3 |

| Compound | TGI (SW-620 colon) [µM] | TGI (HOP-62 NSCLC) [µM] | TGI (HT29 colon) [µM] | TGI (SK-OV-3 ovarian) [µM] | TGI (NCI/ADR-RES ovarian) [µM] | TGI (786-0 renal) [µM] | TGI (A549 NSCLC) [µM] | TGI (SK-MEL-28 melanoma) [µM] | TGI (MALME-3M melanoma) [µM] | TGI (MDA-MB-435) [µM] | TGI (NCI-H23 lung) [µM] | TGI (UACC-62 melanoma) [µM] | TGI (MOLT-4 leukemia) [µM] | TGI (A498 renal) [µM] | TGI (CAKI-1 renal) [µM] | TGI (OVCAR-5 ovarian) [µM] |
| --- | --- | --- | --- | --- | --- | --- | --- | --- | --- | --- | --- | --- | --- | --- | --- | --- |
| Cc1cc(OCc2nnc3n2N=C(c2cc(F)c(Cl)cc2Cl)/C(=C/c2ccc(Cl)cc2)S3)ccc1Cl | 38.5 | > 100 | 52.5 | > 100 | > 100 | > 100 |  | 54.9 |  | > 100 | 79.9 |  | 19.8 | 45.9 | 49.9 | 95.5 |
| C#CCN(CC#C)C(=O)C(=O)c1c[nH]c2ccc(OC)cc12 | 41.2 | 31.3 | 25.3 | 36.5 | 57.7 | 31 | 68.5 | 31 | 32.7 | 35.4 | 50.5 | 42.7 |  | 29.5 |  | 48 |
| O=P(O)(Cc1ccccc1)c1ccccc1-c1ccccc1 | > 100 | > 100 | > 100 | > 100 | > 100 | > 100 | > 100 | > 100 | > 100 |  | > 100 | > 100 | > 100 |  | > 100 | > 100 |
| Cc1cc(C)nc(NS(=O)(=O)c2ccc(NNC(=O)c3cccc4c(=O)c5ccccc5[nH]c34)cc2)n1 | > 100 | > 100 | > 100 | > 100 | > 100 | > 100 | > 100 | 82.8 | > 100 | > 100 | > 100 | > 100 | > 100 |  | > 100 | > 100 |
| O=S(=O)(O)c1ccc(N=Nc2ccc(N=Nc3c(O)ccc4ccccc34)cc2)cc1 | > 100 | > 100 | > 100 | > 100 | > 100 | > 100 | > 100 | > 100 | > 100 | > 100 | > 100 | > 100 | > 100 |  | > 100 | > 100 |
| Cc1c(O)c(C)c2c(C)cn(C(=O)C(C)(C)C)c2c1C | 74.4 | 31.7 | 42.6 | 42.8 | > 100 | 36.3 | 64.7 | 28.7 |  | 30.3 | 41.6 | 28.5 | 55.2 | 30 |  | 83 |
| COc1ccc(N2C(=O)CS(=O)(=O)C2c2cccc(Oc3ccccc3)c2)cc1 (configuration not stated) | > 100 | > 100 | 50.9 | > 100 | 15.4 | 21.1 | > 100 | > 100 | 54.6 | 7.08 | > 100 | 6.25 | 21.9 |  | 19.3 | > 100 |
| CN1C(=O)C(CC=O)(C(C)(C)C)c2ccccc21 (configuration not stated) | > 100 | > 100 |  | > 100 | > 100 | > 100 | > 100 | > 100 |  | > 100 | > 100 | > 100 | > 100 | > 100 | > 100 | > 100 |
| O=C(O)c1cccnc1 | > 100 | > 100 | > 100 |  | > 100 | > 100 | > 100 | > 100 | > 100 | > 100 | > 100 |  | > 100 |  | > 100 | > 100 |
| CCSc1[nH]c(Nc2nc(-c3ccccc3)n(-c3ccccc3)n2)c(C(N)=O)c1C(N)=O | > 10 | > 10 | > 10 | > 10 |  | > 10 | > 10 | > 10 | > 10 | > 10 | > 10 | > 10 | > 10 |  | > 10 |  |
| CSc1ncnc2c1cnn2CCCCO | > 100 | > 100 | > 100 | > 100 |  | > 100 | > 100 | > 100 | > 100 | > 100 | > 100 | > 100 | > 100 | > 100 | > 100 | > 100 |
| Cc1ccc(C(=O)N/N=C(\N=Nc2ccccc2[N+](=O)[O-])c2ccc(N(C)C)cc2)cc1 | > 100 |  | > 100 | > 100 | > 100 | > 100 | > 100 | > 100 |  | > 100 | > 100 | > 100 | > 100 |  | > 100 | > 100 |
| O=C(NCCCN(CCCCN(CCCNC(=O)C(F)(F)F)CCCc1ccccc1)CCCc1ccccc1)C(F)(F)F | 3.93 |  | 3.23 | 5.6 | 15.5 | 2.86 | 3.73 | 3.16 | 3.34 | 3.35 | 25.3 | 3.36 | 4.48 |  | 3.69 | 25.9 |
| O=C1NC(=S)NNC12c1ccccc1-c1ccccc12 | > 10 | > 10 | > 10 | > 10 | > 10 | > 10 | > 10 | > 10 | > 10 |  | > 10 | > 10 | > 10 | 9.93 | > 10 |  |
| COc1ccc(C(OC(C)=O)C2C(=C(C#N)C#N)c3ccccc3C2=C(C#N)C#N)cc1 (configuration not stated) | > 100 | 62.6 | 95.1 | 62.8 | > 100 | > 100 |  | > 100 |  | > 100 | 85.7 |  | 99.8 | 58.6 | > 100 | 38.3 |
